According to patent US20090123907A1 (priority 2004, published 2009):
Several values for one entry are separate records, joined by “and”; a condition that tells them apart may be missing. Equal values may be shown once.

Columns and labels:
red blood cells = assay: Red blood cell integrity during storage at 4° C.; assay type: cell-based; parameters: MCV Day 20 / MCV Day 33: unit not given here; settings: for RBC Day 1: whole blood; for MCV Day 20 / MCV Day 33: whole blood stored at 4° C.
Method: (§1) In this experiment whole blood (an aliquot of which clotted within 10 minutes without anticoagulant) was modified by adding a number of different anticoagulant compositions. Sodium citrate was used as an anticoagulant at 0.65%, 0.75% and 0.9% by weight. These are all higher citrate levels than the usual 0.4% by weight. Amino acid citrates (lysine or arginine) were used at 0.65%, 0.75% and 0.9% by weight based on the weight of the citric acid. The amino acid counterion was used in sufficient quantity to adjust the pH as explained above.
To judge red cell condition the blood was counted and various other measurements were taken initially and after 20 and 33 days of storage at 4° C. Apparent initial/differences in RBC counts are due to dilution caused by adding extra anticoagulant. Mean cell volume (MCV) is a red cell index that is a useful measure of red cell health. […] It is believed that a citrate level of at least about 1.0% by weight (i.e., more than two times the usual amount) is necessary to ensure against all activation of plasma proteins. […] On the other hand, amino acid citrates, which are very effective anticoagulants, are also effective at preventing red cell damage.

clot formation = assay: Clotting times (PT, PTT) of anticoagulated whole blood; assay type: biochemical
Method: as §1

[1] = test system: clotting enzyme activation (D-dimers); assay: D-dimer test (DimerTest latex agglutination) for cryptic activation in citrated plasma; assay type: biochemical
Method: The samples were divided into four 1 ml aliquots. To three of the sample aliquots, sufficient concentrated citrate solution was added to achieve 1%, 1.5% or 2% weight/volume citrate, respectively, while the fourth aliquot acted as the control.
As a “worst case” scenario to detect activation, the aliquots were incubated at 21° C. for a maximum of ten days. Each aliquot was assayed daily for the presence of D-dimers using the DimerTest latex agglutination assay (American Diagnostica, Stamford, Conn.). The results are shown in Table 1 where the number of days to observable D-dimers is listed for each aliquot. […] At day six of incubation, 41.2% (14) of the control aliquots were positive for the presence of D-dimers. By day seven, 100% (34) of the normal citrate (0.4%) aliquots were positive for D-dimers.

SMILES | RBC Day 1 (red blood cells; anticoagulant 0.65 wgt %) | MCV Day 20 (red blood cells; anticoagulant 0.65 wgt %) | MCV Day 33 (red blood cells; anticoagulant 0.65 wgt %) | RBC Day 1 (red blood cells; anticoagulant 0.75 wgt %) | MCV Day 20 (red blood cells; anticoagulant 0.75 wgt %) | MCV Day 33 (red blood cells; anticoagulant 0.75 wgt %) | RBC Day 1 (red blood cells; anticoagulant 0.90 wgt %) | MCV Day 20 (red blood cells; anticoagulant 0.90 wgt %) | MCV Day 33 (red blood cells; anticoagulant 0.90 wgt %) | PT (4 hrs at RT) (clot formation; anticoagulant 0.65 wgt %) [s] | PTT (4 hrs at RT) (clot formation; anticoagulant 0.65 wgt %) [s] | PT (4 hrs at RT) (clot formation; anticoagulant 0.75 wgt %) [s] | PTT (4 hrs at RT) (clot formation; anticoagulant 0.75 wgt %) [s] | PT (4 hrs at RT) (clot formation; anticoagulant 0.90 wgt %) [s] | PTT (4 hrs at RT) (clot formation; anticoagulant 0.90 wgt %) [s] | number of days to observable D-dimers ([1]; 0.4% Citrate, plasma at 21° C., maximum ten days) | aliquots positive for the presence of D-dimers ([1]; 0.4% citrate control aliquots, day six of incubation) [%] | aliquots positive for D-dimers ([1]; 0.4% citrate, by day seven) [%] | aliquots that showed D-dimers by day ten ([1]; additional citrate (1%, 1.5%, 2%))
N=C(N)NCCC[C@H](N)C(=O)O.O=C(O)CC(O)(CC(=O)O)C(=O)O [Arg Citrate, arginine citrate] | 5.77 10^6/μl | 93.1 | 93.5 | 6.45 10^6/μl | 92.6 | 93.6 | 6.77 10^6/μl | 91.5 | 92.4 | 15.8 | 36.8 | 20.2 | 39.9 | 55 | 56.8 | – | – | – | –
O=C(O)CC(O)(CC(=O)O)C(=O)O [Citrate] | – | – | – | – | – | – | – | – | – | – | – | – | – | – | – | 6 days and 7 days and 5 days | 41.2 | 100 | None
